Laboratory results: PMC8959960, “Inhibition of Aldose Reductase by Novel Phytocompounds: A Heuristic Approach to Treating Diabetic Retinopathy” (Evidence-based Complementary and Alternative Medicine : eCAM, 2022)

What was measured:
ALR2 in ARPE-19 cells = biological target: T1, ALR2 in ARPE-19 cells (Homo sapiens, UniProt P15121); assay: Inhibition of ALR2 in ARPE-19 cells; format: cell-based; conditions: normoglycemic (5 mM glucose) ARPE-19 cells, 24 hr, each compound at its human lens IC50 concentration
T1 construct: The cell lysate was collected for analysis; endogenous in cells; host or cells: ARPE-19
Procedure: The cells were shifted to DMEM-low glucose with 10% FBS, 12 hr before the experiment. The cells were washed with PBS and incubated in FBS-free medium and 5 mM/25 mM (normoglycemic condition/hyperglycemic condition) glucose, for 24 hr, with or without the drug. Following the drug treatment, the cells were washed with ice cold PBS, trypsinized, and counted. Cells were resuspended in ALR assay buffer, homogenized for 30 seconds, and centrifuged at 10000 rpm for 30 minutes. The cell lysate was collected for analysis.
ALR2 inhibition protocol by Hayman and Kinoshita was followed.

human lens ALR2 = biological target: T2, human lens ALR2 (Homo sapiens, UniProt P15121); assay: ALR2 inhibition in human lens samples (NADPH decrease at 340 nm); format: biochemical; conditions: crude ALR2 from diabetic human lens, DL-glyceraldehyde substrate, 37°C, pH 7.0; means ± SD, n = 3
T2 construct: Crude ALR2 enzyme extract was prepared by homogenizing from 100 mg of diabetic and nondiabetic human lenses; from tissue; host or cells: human lens (Rotary Aravind International Eye Bank)
Procedure: Hayman and Kinoshita method of crude ALR2 enzyme preparation was followed. Five diabetic and nondiabetic human lenses, aged 58 to 65 years, were obtained from the Rotary Aravind International Eye Bank, Aravind Eye Hospital, Madurai. […] The nondiabetic human lens was used as the control. The lens homogenate was centrifuged at 10,000 rpm for 30 minutes, and the resulting crude ALR2 enzyme preparation was used for analysis.
The 300 μl reaction mixture consisted of 100 mM sodium phosphate buffer adjusted to pH 7.0, 0.2 mM Li2SO4, 5 mM 2-mercaptoethanol, 0.15 mM NADPH, and 100 μg crude enzyme preparation, and the substrate DL-glyceraldehyde was added to initiate the reaction. ALR2 activity was assayed spectrophotometrically by measuring the decrease in the absorption of NADPH at 340 nm per unit time at 37°C and pH 7.0.
The percentage inhibition of ALR2 was calculated using the following formula:(3) % inhibition=ΔAbsorbance of sample/min−ΔAbsorbance blank/min/ΔAbsorbance of control/min−ΔAbsorbance blank/min×100.

ALR2 = conditions: high glucose condition; cited from earlier work
ARPE-19 cells = assay: MTT cell toxicity assay; format: cell-based, human; conditions: 24 hr treatment
Procedure: The cell toxicity of the shortlisted ARIs was assessed using MTT assay kit (in vitro toxicological assay kit, Sigma, USA). ARPE-19 cells were grown to confluence in DMEM/F12 medium with 10% FBS, harvested by trypsinization, and plated at 1 × 10^4 cells per well in a 96-well plate. The medium was replaced with serum-free medium without FBS for 3 hr before the drug treatment. Following serum starvation, ARPE-19 cells were treated with different concentrations of the identified compounds. […] The cells were treated with the lead compounds for 24 hr to determine the cytotoxicity of the compounds. After incubation, the cells were treated with 20 μl of 5 mg/ml MTT and incubated for 3 hr at 37°C to determine the cell toxicity. The viable cells converted MTT into formazan crystals which were dissolved using solubilization solution (200 μl) and measured spectrophotometrically at 570 nm with subtraction of the reference wavelength, 650 nm, to eliminate the possibility of variations in the plate and the media present, using SpectraMax M3 multiplate reader (Molecular Devices, California, USA).

SMILES	ALR2 inhibition (%) (ALR2 in ARPE-19 cells)	IC50 (human lens ALR2)	ALR2 inhibition (ALR2)	concentration below which no toxicity was shown (ARPE-19 cells)
COc1cc(C(=O)O[C@H]2[C@@H]3C=CO[C@@H](O[C@@H]4O[C@H](CO)[C@@H](O)[C@H](O)[C@H]4O)[C@@H]3[C@@]3(CO)O[C@@H]23)ccc1O [Picroside II]	71%	130 nM	–	–
COc1cc(O)c2c(=O)cc(-c3ccccc3)oc2c1OC [7-O-Methylwogonin]	98%	108 nM	–	–
CC(/C=C1\SC(=S)N(CC(=O)O)C1=O)=C\c1ccccc1 [Epalrestat, reference compound]	85%	–	65%	below 5 μM

More lines, main results first:

ALR2 inhibition (%) (ALR2 in ARPE-19 cells)	IC50 (human lens ALR2)	SMILES	ALR2 inhibition (ALR2)	concentration below which no toxicity was shown (ARPE-19 cells)
100%	22.4 nM	O=C(OCC1=C[C@@H](O)[C@@H]2C=CO[C@@H](O[C@@H]3O[C@H](CO)[C@@H](O)[C@H](O)[C@H]3O)[C@H]12)c1ccc(O)cc1 [Agnuside]	–	below 5 μM
65%	27.3 nM	COc1cc2oc(-c3ccc(O)cc3)c(O[C@@H]3O[C@H](CO)[C@H](O)[C@H](O)[C@H]3O)c(=O)c2c(O)c1OC [Eupalitin-3-O-galactoside]	–	–
